In ChEMBL document CHEMBL1250440, “Development of chemical probes: toward the mode of action of a methylene-linked di(aryl acetate) E1” (Bioorg Med Chem, 2010):
Calls of active or inactive are those of the source. The calls are words filed in the database; no cut-off is given here.

Target: T1, RAC-alpha serine/threonine-protein kinase (Homo sapiens, UniProt P31749)
Assay: Inhibition of PKB activation in human overnight starved MCF7 cells assessed as phosphorylated Akt at Ser473 level at 50 ug/ml after 1 hr followed by treated with 1 ug/mL of insulin for 15 mins by Western blotting

T1 sequence (P31749 whole entry): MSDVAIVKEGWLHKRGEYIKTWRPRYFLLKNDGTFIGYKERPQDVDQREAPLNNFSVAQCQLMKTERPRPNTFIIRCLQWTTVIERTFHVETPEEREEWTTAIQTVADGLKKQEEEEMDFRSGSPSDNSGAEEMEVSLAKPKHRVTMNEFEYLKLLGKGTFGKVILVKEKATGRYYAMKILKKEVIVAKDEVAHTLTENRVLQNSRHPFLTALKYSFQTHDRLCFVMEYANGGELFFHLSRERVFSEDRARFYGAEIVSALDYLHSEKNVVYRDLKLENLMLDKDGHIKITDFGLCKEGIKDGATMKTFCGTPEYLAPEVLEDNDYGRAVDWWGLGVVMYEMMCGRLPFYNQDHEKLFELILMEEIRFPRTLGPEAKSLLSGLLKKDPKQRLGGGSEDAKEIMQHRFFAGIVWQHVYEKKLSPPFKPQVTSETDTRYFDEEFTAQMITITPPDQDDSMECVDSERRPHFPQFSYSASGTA

inhibition of PKB activation (active/not active)	SMILES
inactive	CC(=O)Oc1ccccc1Cc1ccccc1OC(C)=O
inactive	CCc1ccc(OC(C)=O)c(Cc2ccccc2OC(C)=O)c1
Active	CC(=O)Oc1ccccc1Cc1cc(CCCl)ccc1OC(C)=O

Further lines, the compound ahead of its results:

SMILES	inhibition of PKB activation (active/not active)
CCc1ccc(OC(C)=O)c(Cc2cc(CC)ccc2OC(C)=O)c1	Active
CCc1ccc(OC(C)=O)c(Cc2cc(CCCl)ccc2OC(C)=O)c1	Active
CCc1ccc(Cc2cc(CCCl)ccc2OC(C)=O)c(OC(C)=O)c1	Active

Target: T1, RAC-alpha serine/threonine-protein kinase
Assay: Inhibition of PKB/Akt activation in human overnight starved MCF7 cells assessed as phosphorylated Akt at Ser473 level at 50 ug/ml after 1 hr followed by treated with 1 ug/mL of insulin for 15 mins by Western blotting
Type: cell-based

IC50 [µM]	SMILES
25	CCc1ccc(OC(C)=O)c(Cc2cc(CCCl)ccc2OC(C)=O)c1
